These results are taken from patent publication US6552018B1, “Pyrazole derivatives” (Daiichi Pharmaceutical Co., Ltd., priority 1997, dated 2003).

Each structure is given as a SMILES string. ≈ marks a conversion by molar mass, not a printed value. Structures can show the parent of a compound that is named as a salt.

One series relates to Tumor cells PC-12. In words: Tumor cell growth inhibition (MTT), PC-12. The format is cell-based. The following applies: PC-12 cells, culturing for 3 days with compound, absorbance at 540 nm; for GI50: Rattus norvegicus, PC-12, 72 h, read-out: GI50, concentration of the compound which showed 50% inhibition on cell growth as compared with a control group, PC-12. The protocol:
(§1) Tumor cells PC-12 and PC-6, which had been serially cultured in RPMI 1640 containing 10% fetal bovine serum, 2 mM L-glutamine, and 100 μg/ml of kanamycin sulfate, were inoculated to a 96-well microplate (1.0×10^3 cells-PC-12/150 μl/well; 5.0×10^3 cells-PC-6/150 μl/well). After 24-hour incuvation, 50 μl of a preparation containing each of the compounds of Examples 5 to 8 and Example 13 (hereinafter described) in a varied concentration was added to each well, followed by culturing for 3 days. A 5 mg/ml solution of 3-(4,5-dimethylthiazol-2-yl)-2,5-diphenyl-2H-tetrazolium bromide (MTT) was added in an amount of 20 μl per well. Four hours later, the culture broth was removed, 150 μl/well of dimethyl sulfoxide was added to the residue, and the absorbance was measured at 540 nm.

Another series has as its system Tumor cells PC-6. In words: Tumor cell growth inhibition (MTT), PC-6. The settings on record: Homo sapiens, 72 h, PC-6 cells, culturing for 3 days with compound, absorbance at 540 nm, read-out: GI50, concentration of the compound which showed 50% inhibition on cell growth as compared with a control group, PC-6. Format: cell-based. The protocol: as §1

As for `Cc1c(/C=C/CN2CCN(c3cc(F)cc(F)c3)CC2)cnn1-c1ncccc1I` (as salt: hydrochloride), the melting point was 212 to 216 °C (dec.). With `Cc1c(/C=C/CN2CCN3c4cc(F)ccc4OCC3C2)cnn1-c1cc(N(C)C)nc(N)n1` (racemic) [Example 71, (+/−)-3-[3-[1-(2-Amino-6-dimethylamino-4-pyrimidinyl)-5-methyl-4-pyrazolyl]-2-trans-propen-1-yl]-9-fluoro-2,3,4,4a,5,6-hexahydro-1H-pyrazino[2,1-c]-1,4-benzoxazine Hydrochloride], the GI50 with Tumor cells PC-12 was 0.00537 µg/mL. Consider `Cc1c(/C=C/CN2CCN3c4ccccc4CC3C2)cnn1-c1cc(N(C)C)nc(N)n1` (racemic) [Example 72, (+/−)-2-[3-[1-(2-Amino-6-dimethylamino-4-pyrimidinyl)-5-methyl-4-pyrazolyl]-2-trans-propen-1-yl]-1,2,3,4,10,10a-hexahydropyrazino[1,2-a]indole Hydrochloride], for which the GI50 in the series with Tumor cells PC-12 came out at 0.035 µg/mL. For the molecule `Cc1c(/C=C/CN2CCN3c4ccccc4CCC3C2)cnn1-c1cc(N(C)C)nc(N)n1` (single isomer, unassigned; isomer a) [Example 67, 3-[3-[1-(2-Amino-6-dimethylamino-4-pyrimidinyl)-5-methyl-4-pyrazolyl]-2-trans-propen-1-yl]-2,3,4,4a,5,6-hexahydro-1H-pyrazino[1,2-a]quinoline Hydrochloride (Isomer A)], the “GI50, concentration of the compound which showed 50% inhibition on cell growth as compared with a control group, PC-12” value with Tumor cells PC-12 came out at 0.0662 µg/mL. For `Cc1c(/C=C/CN2CCN3c4cc(F)ccc4CCC3C2)cnn1-c1cc(N(C)C)nc(N)n1.Cl` (single isomer, unassigned; isomer a) [Example 69, 3-[3-[1-(2-Amino-6-dimethylamino-4-pyrimidinyl)-5-methyl-4-pyrazolyl]-2-trans-propen-1-yl]-9-fluoro-2,3,4,4a,5,6-hexahydro-1H-pyrazin[1,2-a]quinoline Hydrochloride (Isomer A)], the GI50 in the series on Tumor cells PC-12 was determined as 0.0246 µg/mL. With `Cc1c(/C=C/CN2CCN3c4ccccc4CCC3C2)cnn1-c1cc(N(C)C)nc(N)n1` (single isomer, unassigned; isomer b) [Example 68, 3-[3-[1-(2-Amino-6-dimethylamino-4-pyrimidinyl)-5-methyl-4-pyrazolyl]-2-trans-propen-1-yl]-2,3,4,4a,5,6-hexahydro-1H-pyrazino[1,2-a]quinoline Hydrochloride (Isomer B)], the “GI50, concentration of the compound which showed 50% inhibition on cell growth as compared with a control group, PC-12” value in the series on Tumor cells PC-12 amounted to 0.00916 µg/mL. As for `Cc1c(/C=C/CN2CCN3c4cc(F)ccc4CCC3C2)cnn1-c1cc(N(C)C)nc(N)n1` (single isomer, unassigned; isomer b) [Example 70, 3-[3-(1-(2-Amino-6-dimethylamino-4-pyrimidin-yl)-5-methyl-4-pyrazolyl)-2-trans-propen-1-yl]-9-fluoro-2,3,4,4a,5,6-hexahydro-1H-pyrazino[1,2-a]quinoline (Isomer B)], the GI50 in the series on Tumor cells PC-12 came to 0.0101 µg/mL (≈ 0.0218 µM). `Cc1c(/C=C/CN2CCN(c3cc(F)cc(Cl)c3)CC2)cnn1-c1ncccc1Cl.Cl` [Example 5, 3-[4-(3-Chloro-5-fluorophenyl)-1-piperazinyl]-1-[1-(3-chloro-2-pyridyl)-5-methyl-4-pyrazolyl]-1-trans-propene Hydrochloride]: the GI50 is 0.0106 µg/mL in the series on Tumor cells PC-6 and 0.0913 µg/mL in the series on Tumor cells PC-12.

For the molecule `Cc1c(/C=C/CN2CCN(c3cc(F)cc(F)c3)CC2)cnn1-c1ncccc1Cl.Cl` [Example 6, 1-[1-(3-Chloro-2-pyridyl)-5-methyl-4-pyrazolyl]-3-[4-(3,5-difluorophenyl)-1-piperazinyl]-1-trans-propene Hydrochloride], the GI50 with Tumor cells PC-6 is 0.00879 µg/mL; with Tumor cells PC-12, 0.0347 µg/mL. For `Cc1c(/C=C/CN2CCN(c3cc(Cl)cc(Cl)c3)CC2)cnn1-c1ncccc1Cl.Cl` [Example 7] the same measures were 0.0382 µg/mL and 0.237 µg/mL. For `Cc1c(/C=C/CN2CCN(c3cccc(Cl)c3)CC2)cnn1-c1ncccc1Cl.Cl` [Example 8, 3-[4-(3-Chlorophenyl)-1-piperazinyl]-1-[1-(3-chloro-2-pyridyl)-5-methyl-4-pyrazolyl]-1-propene Hydrochloride] the same measures were 0.0373 µg/mL and 0.21 µg/mL. In the same order, the values of `COc1cccnc1-n1ncc(/C=C/CN2CCN(c3cc(Cl)cc(Cl)c3)CC2)c1C.Cl` [Example 13, 3-[4-(3,5-Dichlorophenyl)-1-piperazinyl]-1-[1-(3-methoxy-2-pyridyl)-5-methyl-4-pyrazolyl]-1-trans-propene Hydrochloride] are 0.00493 µg/mL and 0.0383 µg/mL. As to `Cc1c(/C=C/CN2CCN(c3cc(F)cc(F)c3)CC2)cnn1-c1cc(N)nc(N)n1.Cl` [Example 58, 1-[1-(2,6-Diamino-4-pyrimidinyl)-5-methyl-4-pyrazolyl]-3-[4-(3,5-difluorophenyl)-1-piperazinyl]-1-trans-propene Hydrochloride], the GI50 with Tumor cells PC-12 worked out at 0.0134 µg/mL.

In the case of `CNc1cc(-n2ncc(/C=C/CN3CCN(c4cc(F)cc(F)c4)CC3)c2C)nc(N)n1.Cl` [Example 59, 1-[1-(2-Amino-6-methylamino-4-pyrimidinyl)-5-methyl-4-pyrazolyl]-3-[4-(3,5-difluorophenyl)-1-piperazinyl]-1-trans-propene Hydrochloride], in the series on Tumor cells PC-12, the GI50 is 0.011 µg/mL.

`Cc1c(/C=C/CN2CCN(c3cc(F)cc(F)c3)CC2)cnn1-c1nc(N)nc(N(C)C)n1.Cl` [Example 60, 1-[1-(2-Amino-4-dimethylamino-1,3,5-triazin-6-yl)-5-methyl-4-pyrazolyl]-3-[4-(3,5-difluorophenyl)-1-piperazinyl]-1-trans-propene Hydrochloride]: the GI50 in the series on Tumor cells PC-12 came to 0.0207 µg/mL.

A word on the melting point: it is the temperature, or range, at which the solid turns liquid.
